US4347178A, “Compounds and methods of making” (Burroughs Wellcome Co., priority 1980, dated 1982)

Assays:
[1] = tested on: anti-compound 2 sera and anti-compound 3 sera; assay: RIA of bupropion using 125I-labeled bupropion competitors with anti-compound 2 sera and anti-compound 3 sera; assay type: biochemical; settings: for RIA sensitivity compared with the compound 10 system: substitution of 7 or 8 as competitor, anti-compound 2 and anti-compound 3 sera
Procedure: (§1) Samples of six standard solutions of bupropion in blank plasma having concentrations of 0.39 to 50 ng/ml) are pipetted (0.1 ml each) in duplicate into 12×75 mm plastic tubes. Duplicate non-specific binding (no antibody) and maximum binding tubes (no unlabeled bupropion) receive 0.1 ml blank plasma. Spiked plasma controls at several concentrations of (e.g., 1.0, 10.0, and 100 ng/ml) and plasma samples for assay (diluted into the standard range with blank plasma if necessary) are assayed in duplicate. After being placed in an ice bath, all tubes receive (in order) 0.2 ml ^3 H bupropion (416 pg. containing approximately 10^4 cpm) and 0.7 ml anti-bupropion serum (raised to a ring-functionalized immunogen according to the present invention) (at pre-determined dilutions such that approximately 40% of the ^3 H bupropion added is bound), both in assay buffer (0.05 M phosphate-bufferedisotonic saline, containing 0.01 M EDTA and 0.1% gelatin, pH 7.0). Non-specific binding tubes receive 0.7 ml assay buffer.) Following incubation either at 25° C. for 2 hours or overnight at 4° C., bound and free ^3 H bupropion are separated by incubation for 10 min at 0° C. with 0.5 ml ice-cold dextran-coated charcoal solution (0.25% dextran, 5 mg/ml charcoal, in assay buffer) followed by centrifugation for 10 minutes at 4° C. […] The supernatants, containing antibody-bound ^3 H bupropion are carefully decanted into liquid scintillation cocktail for quantitation of ^3 H. After counts (minus average non-specific binding cpm) are expressed as percentages of average maximum binding cpm, bupropion concentrations in plasma samples and spiked controls are read from a standard curve (log concentration vs percent average maximum binding).
RIA's have been run according to the method of Example X utilizing ^125 I labeled bupropion competitors of the present invention in conjunction with antisera obtained following immunization with immunogens of the present invention. […] Following the ethanol precipation of antibody-bound ^125 I-bupropion competitior at equilibrium, ^125 I in the protein pellets was quantified.

anti-compound 1 sera = assay: RIA of bupropion using compound 6 with anti-compound 1 sera; assay type: biochemical
Procedure: as §1, with “7.0).” for “7.0). Non-specific binding tubes receive 0.7 ml assay buffer.) Following incubation either at 25° C. for 2 hours or overnight at 4° C., bound and free ^3 H bupropion are separated by incubation for 10 min at 0° C. with 0.5 ml ice-cold dextran-coated charcoal solution (0.25% dextran, 5 mg/ml charcoal, in assay buffer) followed by centrifugation for 10 minutes at 4° C.”, “binding). […]” for “binding).”

Compound	RIA sensitivity compared with the compound 10 system [1]	also measured
CC(NC(C)(C)C)C(=O)c1ccc(CCCOC(=O)CCC(=O)NCCc2ccc(O)c([125I])c2)c(Cl)c1 (stereo not drawn) [compound 8, α-t-Butylamino-3-chloro-4-γ-hydroxypyropylpropiophenone-hemisuccinate-^125 I-tyramine amide]	approximately equal to that obtained with the compound 10 system	–
CC(NC(C)(C)C)C(=O)c1ccc(OCC(=O)NCCc2ccc(O)c([125I])c2)c(Cl)c1 (stereo not drawn) [compound 7, α-t-Butylamino-3-chloro-4-carbomethoxypropiophenone-^125 I-tyramine amide]	approximately equal to that obtained with the compound 10 system	–
CC(NC(C)(C)C)C(=NOCC(=O)NCCc1ccc(O)c([125I])c1)c1cccc(Cl)c1 (stereo not drawn) [compound 6, α-t-Butylamino-3-chloropropiophenone-carboxymethyloxime-^125 I-tyramine amide]	–	RIA sensitivity (anti-compound 1 sera): least sensitive RIA
CC(NC(C)(C)C)C(=O)c1ccc(O)c([125I])c1 (stereo not drawn) [compound 9, ^125 I-α-t-Butylamino-3-iodo-4-hydroxypropiophenone]	–	RIA sensitivity relative to the compound 10 (3H bupropion) assay system ([1]; in conjunction with either antisera (anti-compound 2 or anti-compound 3)): approximately ten
